This note sets out measurements from US9834567B1, “Crystalline form of cefamandole nafate compound, preparation and preparing method thereof” (TIANJIN UNIVERSITY, priority 2014, dated 2017).

Series [1] concerns Rabbits. Format: in vivo. Here is the method: (§1) The novel crystalline form of Cefamandole Nafate compound of the present invention was tested by toxic reaction tests shown as follows (taking the crystalline form of Cefamandole Nafate obtained in Example 1 for example):
Rabbits were injected with 0.4˜2.1 g of Cefamandole Nafate each time with the interval of 15 min, and recording the changes of blood pressure and electrocardiogram.

Series [2] relates to Rabbits. Put plainly: Toxic reaction test: 15-day daily intravenous injection in rabbits (renal). Format: in vivo. As to conditions: 250 mg/kg intravenously daily for 15 days. Here is the method: as §1
Rabbits were divided into 2 groups, every 4 animals in each group, and daily intravenously injected with 250 mg/kg Cefamandole Nafate for 15 days, while the control group was injected with 5 ml saline per day.

Series [3] is described as follows: Toxic reaction test: acute toxicity (LD50) in mice. The settings on record: mouse, in vivo. Here is the method:
as §1
(§2) Mice were divided into 4 dose groups by weights, every 10 animals in each group, and administered by intravenous injection, subcutaneous injection and intraperitoneal injection with a concentration of […].

Series [4] can be described thus: Toxic reaction test: acute toxicity (LD50) in rats. As to conditions: rat, in vivo, intravenous injection. Here is the method: as §1, §2
The nature of series [5]: Storage stability of the crystalline product. The format is physicochemical. Here is the method: Said method has the following advantageous effects: simple procedure, easy operation, and low energy consumption. The prepared product has a melting range of 160˜170° C. with good thermal stability, and is conducive to the long-term preservation. […] The product is easy to crush and processed into dosage forms of a pharmaceutical composition, as well as low cost, and easier to implement on commercial and industrial scale.

Setting [6] is: anesthetized rabbits, intravenous injection, 0.4~2.1 g each time.
[7] abbreviates: rabbits, dosage up to 4800 mg/kg.

Take `Cn1nnnc1SCC1=C(C(=O)[O-])N2C(=O)[C@@H](NC(=O)[C@H](OC=O)c3ccccc3)[C@H]2SC1.[Na+]` [Cefamandole Nafate, (6R, 7R)-7-R-(2-formyloxy-2-phenylacetamide)-3-[[(1-methyl-1H-tetrazol-5-yl)thio]methyl]-8-oxo-5-thia-1-azabicyclo [4.2.0] oct-2-ene-2-carboxylate sodium salt]: in the series on Rabbits [1] (setting [6]), the breathing entry is “deepened and accelerated”; the “electrocardiogram and heart rate” value was “did not change significantly”. For the same compound, the death entry in the series on Rabbits [1] (rabbits, dosage further increased above 4800 mg/kg) is listed as “death occurred”. In the series on Rabbits [1] (setting [7]), the blood pressure result is “significantly decreased”; the electrocardiogram result is “prolonged in P-R interval, depressed in ST segment, and ventricular arrhythmias”; the respiration entry is reported as “inhibited”. In the series on Rabbits [2], the renal tissue concentration result is reported as “increased” and the renal toxicity result is listed as “low”.
A word on the LD50: it is the dose at which mortality reaches 50%. A low value points to a more toxic substance. On to `Cn1nnnc1SCC1=C(C(=O)[O-])N2C(=O)[C@@H](NC(=O)[C@H](OC=O)c3ccccc3)[C@H]2SC1.[Na+]` [Example 1, (6R, 7R)-7-R-(2-formyloxy-2-phenylacetamide)-3-[[(1-methyl-1H-tetrazol-5-yl)thio]methyl]-8-oxo-5-thia-1-azabicyclo [4.2.0] oct-2-ene-2-carboxylate sodium salt], for which the 50% lethal dose (LD50) in series [3] (intravenous injection) is 4220 mg/kg; in series [3] (ip, intraperitoneal injection), 4500 mg/kg; in series [3] (sc, subcutaneous injection), 7260 mg/kg; in series [4] it was 3420 mg/kg. Also, in series [5], the “degradation after placing for a long time” value is given as “without degradation”.
